Test results published in US12643892B2, “Pyridazinone compounds for the treatment of neuromuscular diseases” (Edgewise Therapeutics, Inc., priority 2020, dated 2026).

Biological target: Skeletal Myofibril ATPase (Rabbit Psoas myofibrils)
Assay: Skeletal Myofibril ATPase Assay
Assay type: biochemical
Conditions: PK/LDH-coupled NADH absorbance at 340 nm
Description: Overview: Myosin ATPase activity was assessed by using a coupled reaction system, in which ADP generated by the myosin ATPase function was coupled to the disappearance of NADH through the pyruvate kinase/lactate dehydrogenase (PK-LDH) system. Myosin ATPase activity produces ADP, which was used as a substrate for PK to produce pyruvate and regenerate ATP. The pyruvate was then used as a substrate by LDH to oxidize NADH to NAD+. The rate of the reaction was monitored through the time-dependent disappearance of NADH using absorbance at 340 nm. Inhibition of ATPase activity by the assayed compounds was indicated by a reduced rate of NADH loss, relative to vehicle-treated controls, over the experimental time window. To assess the selectivity of the assayed compounds for skeletal myofibrils, the compounds were counter-screened in cardiac myofibrils.
Materials: The following stock solutions and reagents were used in the Skeletal Myofibril ATPase Assay:
Stock Solutions of pCa buffer. Combine PIPES, CaCl2, and EGTA solutions with 70 mL of water. Adjust pH to 7.0 and bring final volume to 100 mL.
Buffer A & Buffer B. Buffers were stored on ice until use.
Skeletal Myofibril ATPase Assay Procedure: BSA, ATP, NADH, PEP, and DTT solutions were thawed at room temperature, then transferred to ice. Pellet-frozen myofibrils (approximately twice the required volume) were transferred into a sufficiently large tube and capped. Myofibrils were thawed by rolling in a water bath for approximately 15 min at room temperature and cooled on ice. Buffers A and B were prepared by adjusting volumes as necessary for required number of wells and stored on ice. 0.5 μL of the compounds to be assayed were added into wells of a 384-well plate. Buffers A and B were mixed by inversion immediately prior to use, then 25 μL of each was dispensed using a Multidrop dispenser (Buffer A first, then Buffer B). The absorbance within the wells was measured at 340 nm, using a kinetic protocol in which the wells are read every 1.5-2 min for 1 h. The reaction rate was qualitatively assessed by subtracting the minimum absorbance value from the maximum value for each well, using either the SoftMax Pro plate reader software or a spreadsheet program such as Excel. Using GraphPad Prism 8.0, the data was normalized, with 100% activity defined as the absorbance change in the 1% DMSO vehicle wells and 0% assigned to no change in absorbance over the course of the experiment. The normalized data were fit to a variable-slope four-parameter logistic model, constraining the bottom to be 0 or greater. Compounds of Table 1 to 3 were tested and results of the assay appear in Table 4 herein. A=IC50 is less than or equal to 10 μM; B=IC50 is greater than 10 μM and less than 100 μM; C=IC50 is greater than 100 μM.

O=c1ccc(-c2nc(-c3cccc(F)c3)no2)cn1Cc1cccnc1 [Compound 102, 5-(3-(3-fluorophenyl)-1,2,4-oxadiazol-5-yl)-1-(pyridin-3-ylmethyl)pyridin-2(1H)-one] and Cc1cccc(-c2noc(-c3ccc(=O)n(Cc4cccnc4)c3)n2)c1 [Compound 109, 1-(pyridin-3-ylmethyl)-5-(3-(m-tolyl)-1,2,4-oxadiazol-5-yl)pyridin-2(1H)-one] cannot be ordered by IC50: at most 10 µM for the first, 10 to 100 µM for the second.

Going from Cc1ccc(-c2ccc(=O)n(CC(=O)NC(C)C)n2)s1 [Compound 33, N-isopropyl-2-(3-(5-methylthiophen-2-yl)-6-oxopyridazin-1(6H)-yl)acetamide] to CC(C)NC(=O)Cn1nc(-c2cccs2)ccc1=O [Compound 49, N-isopropyl-2-(6-oxo-3-(thiophen-2-yl)pyridazin-1(6H)-yl)acetamide], the IC50 rises from at most 10 µM to over 100 µM.

O=c1ccc(-c2nc(-c3cccc(Cl)c3)no2)cn1Cc1cncc(F)c1 [Compound 86, 5-(3-(3-chlorophenyl)-1,2,4-oxadiazol-5-yl)-1-((5-fluoropyridin-3-yl)methyl)pyridin-2(1H)-one] and O=c1ccc(-c2nc(-c3cccc(Cl)c3)no2)cn1Cc1cncnc1 [Compound 85, 5-(3-(3-chlorophenyl)-l,2,4-oxadiazol-5-yl)-1-(pyrimidin-5-ylmethyl)pyridin-2(1H)-one] cannot be ordered by IC50: at most 10 µM for the first, at most 10 µM for the second.

Going from Cc1cccc(-c2noc(-c3ccc(=O)n(Cc4ncc(C)s4)c3)n2)c1 [Compound 92, 1-((5-methylthiazol-2-yl)methyl)-5-(3-(m-tolyl)-1,2,4-oxadiazol-5-yl)pyridin-2(1H)-one] to COc1ncccc1Cn1cc(-c2nc(-c3cccc(C)c3)no2)ccc1=O [Compound 121, 1-((2-methoxypyridin-3-yl)methyl)-5-(3-(m-tolyl)-1,2,4-oxadiazol-5-yl)pyridin-2(1H)-one], the IC50 rises from at most 10 µM to over 120 µM.

O=c1ccc(-c2nc(-c3ccccc3Cl)no2)cn1Cc1cccnc1 [Compound 110, 5-(3-(2-chlorophenyl)-1,2,4-oxadiazol-5-yl)-1-(pyridin-3-ylmethyl)pyridin-2(1H)-one] and O=c1ccc(-c2nc(-c3ccccc3)no2)cn1Cc1cccnc1 [Compound 107, 5-(3-phenyl-1,2,4-oxadiazol-5-yl)-1-(pyridin-3-ylmethyl)pyridin-2(1H)-one] fall in the same range of IC50: 10 to 100 µM for the first, 10 to 100 µM for the second.

O=c1ccc(-c2nc(-c3cncc(F)c3)no2)cn1Cc1cccnc1 [Compound 108, 5-(3-(5-fluoropyridin-3-yl)-1,2,4-oxadiazol-5-yl)-1-(pyridin-3-ylmethyl)pyridin-2(1H)-one] and O=c1ccc(-c2nc(-c3ccc(F)cc3)no2)cn1Cc1cccnc1 [Compound 104, 5-(3-(4-fluorophenyl)-1,2,4-oxadiazol-5-yl)-1-(pyridin-3-ylmethyl)pyridin-2(1H)-one] cannot be ordered by IC50: 10 to 100 µM for the first, at most 10 µM for the second.

Cc1ccc(-c2ccc(=O)n(CC(=O)NCc3ccccc3)n2)s1 [Compound 35, N-benzyl-2-(3-(5-methylthiophen-2-yl)-6-oxopyridazin-1(6H)-yl)acetamide] and Cc1ccc(-c2ccc(=O)n(CC(=O)NCc3ccccc3F)n2)s1 [Compound 34, N-(2-fluorobenzyl)-2-(3-(5-methylthiophen-2-yl)-6-oxopyridazin-1(6H)-yl)acetamide] cannot be ordered by IC50: 10 to 100 µM for the first, at most 10 µM for the second.

CCNC(=O)Cn1nc(-c2nc(-c3cccnc3)no2)ccc1=O [Compound 13, N-ethyl-2-(6-oxo-3-(3-(pyridin-3-yl)-1,2,4-oxadiazol-5-yl)pyridazin-1(6H)-yl)acetamide] and CCNC(=O)Cn1nc(-c2nc(-c3ccccc3)no2)ccc1=O [Compound 16, N-ethyl-2-(6-oxo-3-(3-phenyl-1,2,4-oxadiazol-5-yl)pyridazin-1(6H)-yl)acetamide] cannot be ordered by IC50: 10 to 100 µM for the first, at most 10 µM for the second.

O=c1ccc(-c2nc(-c3ccsc3)no2)cn1Cc1ccccc1C(F)(F)F [Compound 115, 5-(3-(thiophen-3-yl)-1,2,4-oxadiazol-5-yl)-1-(2-(trifluoromethyl)benzyl)pyridin-2(1H)-one] and O=c1ccc(-c2nc(-c3ccc(Cl)cc3)no2)cn1Cc1cccnc1 [Compound 125, 5-(3-(4-chlorophenyl)-1,2,4-oxadiazol-5-yl)-1-(pyridin-3-ylmethyl)pyridin-2(1H)-one] cannot be ordered by IC50: over 120 µM for the first, over 120 µM for the second.

CCNC(=O)Cn1nc(-c2nc(-c3cccc(OC(F)F)c3)no2)ccc1=O [Compound 7, 2-(3-(3-(3-(difluoromethoxy)phenyl)-1,2,4-oxadiazol-5-yl)-6-oxopyridazin-1(6H)-yl)-N-ethylacetamide] and CCNC(=O)Cn1nc(-c2nc(-c3cccc(OC)c3)no2)ccc1=O [Compound 4, N-ethyl-2-(3-(3-(3-methoxyphenyl)-1,2,4-oxadiazol-5-yl)-6-oxopyridazin-1(6H)-yl)acetamide] cannot be ordered by IC50: at most 10 µM for the first, at most 10 µM for the second.

CCNC(=O)Cn1nc(-c2nc(-c3cccc(Cl)c3)no2)ccc1=O [Compound 14, 2-(3-(3-(3-chlorophenyl)-1,2,4-oxadiazol-5-yl)-6-oxopyridazin-1(6H)-yl)-N-ethylacetamide] and CCNC(=O)Cn1nc(-c2nc(-c3cccc(C(F)(F)F)c3)no2)ccc1=O [Compound 11, N-ethyl-2-(6-oxo-3-(3-(3-(trifluoromethyl)phenyl)-1,2,4-oxadiazol-5-yl)pyridazin-1(6H)-yl)acetamide] cannot be ordered by IC50: at most 10 µM for the first, at most 10 µM for the second.

CCNC(=O)Cn1nc(-c2nc(-c3cc(Cl)ccc3F)no2)ccc1=O [Compound 1, 2-(3-(3-(5-chloro-2-fluorophenyl)-1,2,4-oxadiazol-5-yl)-6-oxopyridazin-1(6H)-yl)-N-ethylacetamide] and CCNC(=O)Cn1nc(-c2nc(-c3cccc(OC(F)(F)F)c3)no2)ccc1=O [Compound 6, N-ethyl-2-(6-oxo-3-(3-(3-(trifluoromethoxy)phenyl)-1,2,4-oxadiazol-5-yl)pyridazm-1(6H)-yl)acetamide] cannot be ordered by IC50: at most 10 µM for the first, at most 10 µM for the second.

Cc1noc(-c2ccc(=O)n(Cc3ccc(F)cc3)n2)n1 [Compound 69, 2-(4-fluorobenzyl)-6-(3-methyl-1,2,4-oxadiazol-5-yl)pyridazin-3(2H)-one] and O=c1ccc(-c2nc(-c3cncc(Cl)c3)no2)nn1Cc1ccccc1 [Compound 66, 2-benzyl-6-(3-(5-chloropyridin-3-yl)-1,2,4-oxadiazol-5-yl)pyridazin-3(2H)-one] cannot be ordered by IC50: 10 to 100 µM for the first, at most 10 µM for the second.

CCCn1nc(-c2nc(COc3ccccc3)no2)ccc1=O [Compound 77, 6-(3-(phenoxymethyl)-1,2,4-oxadiazol-5-yl)-2-propylpyridazin-3(2H)-one] and COCCn1nc(-c2nc(-c3ccc(F)c(F)c3)no2)ccc1=O [Compound 75, 6-(3-(3,4-difluorophenyl)-1,2,4-oxadiazol-5-yl)-2-(2-methoxyethyl)pyridazin-3(2H)-one] fall in the same range of IC50: 10 to 100 µM for the first, 10 to 100 µM for the second.

CCNC(=O)Cn1nc(-c2ncc(-c3cccc(Cl)c3)o2)ccc1=O [Compound 27, 2-(3-(5-(3-chlorophenyl)oxazol-2-yl)-6-oxopyridazin-1(6H)-yl)-N-ethylacetamide] and Cc1cnc(-c2ccc(=O)n(CC(=O)NCc3ccccc3Cl)n2)s1 [Compound 26, N-(2-chlorobenzyl)-2-(3-(5-methylthiazol-2-yl)-6-oxopyridazin-1(6H)-yl)acetamide] cannot be ordered by IC50: at most 10 µM for the first, at most 10 µM for the second.

Compared with Cc1cccc(-c2noc(-c3ccc(=O)n(Cc4ccc(C#N)nc4)c3)n2)c1 [Compound 103, 5-((2-oxo-5-(3-(m-tolyl)-1,2,4-oxadiazol-5-yl)pyridin-1(2H)-yl)methyl)picolinonitrile], O=c1ccc(-c2nc(-c3ccccc3Cl)no2)cn1Cc1noc(C2CC2)n1 [Compound 113, 5-(3-(2-chlorophenyl)-1,2,4-oxadiazol-5-yl)-1-((5-cyclopropyl-1,2,4-oxadiazol-3-yl)methyl)pyridin-2(lH)-one] is higher in IC50: at most 10 µM for the first, over 120 µM for the second.

Compared with O=c1ccc(-c2nc(C3CC3)no2)cn1Cc1c(F)cccc1Cl [Compound 123, 1-(2-chloro-6-fluorobenzyl)-5-(3-cyclopropyl-1,2,4-oxadiazol-5-yl)pyridin-2(1H)-one], O=c1ccc(-n2cncn2)nn1Cc1csc(Br)c1 [Compound 80, 2-((5-bromothiophen-3-yl)methyl)-6-(1H-1,2,4-triazol-1-yl)pyridazin-3(2H)-one] is lower in IC50: over 120 µM for the first, 10 to 100 µM for the second. The second is the more potent here.

Work on CCNC(=O)Cn1nc(-c2nnc(-c3cncc(C(F)(F)F)c3)s2)ccc1=O [Compound 19, N-ethyl-2-(6-oxo-3-(5-(5-(trifluoromethyl)pyridin-3-yl)-1,3,4-thiadiazol-2-yl)pyridazin-1(6H)-yl)acetamide] yielded an IC50 of at most 10 µM.
